Measurements taken from US7423015B1, “Antihelminthic drugs as a treatment for hyperproliferative diseases” (Board of Regents, The University of Texas System, priority 2001, dated 2008).

Legend:
[1] = test system: H1299 (p53 deleted), H322 (p53 mutated), H460 (wt p53) and A549 (wt p53) human lung cancer cell lines; assay: 3-day growth assay with Ad5p53 and FZ; type: cell-based
Protocol: In those assays, growing, cultured cells were trypsinized and plated (10^4 cells/well) and then infected the next day with Ad5p53 at 1 MOI. Viral supernatant was then added, after which cells were incubated for 24 h, washed with PBS, fed fresh medium or incubated with medium containing FZ for 24 h, washed again, and fed fresh medium. In contrast, uninfected cells (controls) were treated with FZ for 24 h, washed with PBS, fed fresh medium, and then subjected to a 3-day growth assay (FIG. 4A).

[2] = test system: neovascularization induced by A549 cells; assay: Angiogenesis by tumor cells in vivo, dorsal air-sac method; design: species or system nude mouse; details: MZ oral suspension 1 mg/mouse/day, day 5
Protocol: In vivo angiogenesis was assayed by the dorsal air-sac method (Bouvet et al., 1998). Briefly, 1×10^7 cultured A549 cells were suspended in PBS and packed into round cellulose ester membrane chambers with a diameter of 14 mm (pore size, 0.45 μm; Millipore, Bedford, Mass.). The chambers were then implanted into a dorsal air sac of a nude mouse. After the chamber implantation mice were fed with MZ oral suspension (1 mg/mouse/day). Five mice were used in each group. The mice were killed on day 5, and the subcutaneous region overlying the chamber in each mouse was photographed. The experiment was repeated two times with identical results.
In vivo angiogenesis was further assayed by the dorsal air-sac method (Tanaka et al., 1989). Subcutaneous neovascularization overlying a semipermeable membrane chamber containing […] cells. […] In order to exclude the possibility that the reduced vasculature was due to lack of viable tumor cells in the chamber, cells were prelabeled with fluorescent dye and injected into the chamber. After the blood vessels were photographed, the tumor cells on the membrane was examined under a fluorescence microscope.

| Structure (SMILES) | cell growth after FZ alone, p53-mutated and deleted cells ([1]; 0.05 μg/ml FZ for 24 h) | growth inhibition after FZ alone, wt p53 H460 cells ([1]; 0.05 μg/ml FZ for 24 h) | cell growth after Ad5p53 plus FZ ([1]; Ad5p53-transduced cells (1 MOI, 24 h) treated with FZ for 24 h, all four cell lines, 3-days growth assay) | number and caliber of blood vessels [2] |
| --- | --- | --- | --- | --- |
| COC(=O)Nc1nc2ccc(Sc3ccccc3)cc2[nH]1 [Fenbendazole, methy 5-(phenylthio)-2-benzimidazole-2-carbamate] | not growth inhibited | significantly so | striking growth inhibition | – |
| COC(=O)Nc1nc2ccc(C(=O)c3ccccc3)cc2[nH]1 [Mebendazole, Methyl 5-benzoylbenzimidazole-2-carbamate] | – | – | – | significantly reduced |
